Experimental data as given in paper PMC6479402, “Anti-Herpetic, Anti-Dengue and Antineoplastic Activities of Simple and Heterocycle-Fused Derivatives of Terpenyl-1,4-Naphthoquinone and 1,4-Anthraquinone” (Molecules, 2019).
Several values for one entry are separate records, joined by “and”; a condition that tells them apart may be missing. Equal values may be shown once. Read-outs that look alike come from different tables or passages of the source.

How the values were obtained:
HeLa = test: MTT cytotoxicity assay; assay type: cell-based; settings: Homo sapiens, HeLa ATCC CRL-1958, 48 h, read-out: IC50 ± SD, HeLa
Experimental: (§1) Then, each diluted molecule was added to the cells and incubated for further 48 h at 37 °C, 5% CO2. […] The DMSO was then added to dissolve the formed formazan crystals and absorbance was determined spectrophotometrically at 570 nm. […] IC50 values were expressed as the mean ± standard deviation (M ± SD) of two independent experiments done in quadruplicate.

Jurkat = test: MTT cytotoxicity assay; assay type: cell-based; settings: Homo sapiens, Jurkat ATCC TIB-152, 48 h, read-out: IC50 ± SD, Jurkat
Experimental: as §1

[1] = test system: Human Herpesvirus type 1 (HHV-1); test: End-point titration technique (EPTT), anti-herpetic screening on infected Vero cells; assay type: cell-based; settings: for minimal effective concentration: Human alphaherpesvirus 1, 1 TCID50, 48 h, read-out: 1 TCID50: non-toxic concentration that showed viral reduction factor, HHV-1; for Rf (reduction factor of the viral titer), HHV-1: 1 TCID50, 48 h
Experimental: (§2) The in vitro antiviral evaluation of the 27 substances against Human Herpesvirus type 1 (HHV-1) and 2 (HHV-2) was made on infected Vero cells, using the end-point titration technique (EPTT).
(§3) The antiviral activity of molecules against 1 and 10 Cell Culture Infectious Dose 50% (10TCID50) of HHV-1 and HHV-2, respectively, was determined using end-point titration technique (EPTT). Vero cells grown in 96-well plates at a density of 2.0 × 10^4 cells/well were incubated at 37 °C in 5% CO2 atmosphere until constitute 80% of cell monolayer. Then, viral suspensions of HHV-1 or HHV-2 with concentrations of 6.25 µg/mL to 50 µg/mL of compounds were performed in DMEM supplemented with 2% FBS containing 1% and 0.5% carboxymethylcellulose (CMC) for HHV-1 and HHV-2, respectively. Mixture was incubated during 15 minutes at room temperature and was added to the cell monolayer. After 48 h of incubation at 37 °C (5% CO2), the cytopathic effect was examined, the microplates were fixed with 3.5% formaldehyde and stained with 0.2% crystal violet. Two independent experiments by quadruplicate for each viral serotype and each were carried out. Positive controls, such as dextran sulfate (DS) and acyclovir (A) for early stages and late stages of infection, respectively, were included.

[2] = test system: Human Herpesvirus type 2 (HHV-2); test: as above; assay type: cell-based, Human Herpesvirus 2; settings: for Rf (reduction factor of the viral titer), HHV-2: 10 TCID50, 48 h; for minimal effective concentration: Human alphaherpesvirus 2, 10 TCID50, 48 h, tested 6.25-50 µg/mL, read-out: 10 TCID50: non-toxic concentration that showed viral reduction factor, HHV-2
Experimental: as §2, §3

Vero = test: MTT cytotoxicity assay, non-tumor cells; assay type: cell-based, Cercopithecus aethiops; settings: for IC50: Chlorocebus sabaeus
Experimental: The in vitro cytotoxicity evaluation of quinones was performed using the 3-(4,5 dimethylthiazol-2-yl)-2,5-diphenyltetrazolium bromide (MTT, Sigma, Cream Ridge, NJ, USA) assay as described by Betancur-Galvis et al. 2002 [22]. Briefly, Vero and HeLa cell lines were seeded at 2.0 × 10^3 cells per well of 96-well plates in DMEM supplemented with 10% of inactivated FBS, and were incubated for 24 h at 37 °C, 5% CO2. Then, each diluted molecule was added to the cells and incubated for further 48 h at 37 °C, 5% CO2. Jurkat cell line at 3 × 10^3 cells per well in a 96-well round-bottomed plate and diluted substances in RPMI-1640 medium (Sigma) supplemented with 10% FBS were plated simultaneously. After 48 h of treatment at 37 °C, 5% CO2, the media was carefully removed and 28 µL of MTT solution (4 mg/mL) was added to each well, and the plates were incubated for 2 h at 37 °C, 5% CO2. The DMSO was then added to dissolve the formed formazan crystals and absorbance was determined spectrophotometrically at 570 nm.
The minimal dilution of compound that caused 50% inhibition of the cells (IC50) was calculated by linear regression analysis of the dose-response curves generated from the absorbance data with the statistical GraphPad Prisma 5.0. IC50 values were expressed as the mean ± standard deviation (M ± SD) of two independent experiments done in quadruplicate.

HHV-1 [3] = test: Plaque reduction assay, simultaneous and post-infection treatment, Vero cells; assay type: cell-based, Human Herpesvirus 1; settings: for Antiviral activity in simultaneous treatment, HHV-1: PFU, NQ 4 0.4–3.1 µg/mL, DS 5 µg/mL; for Antiviral activity in post-infection treatment, HHV-1: post-infective stages, acyclovir 1.5 µg/mL
Experimental: (§4) To define the stage of the viral replicative cycle where NQ 4 exerts its action, simultaneous and post-infection treatments against HHV-1 and HHV-2 were performed. […] First, we determined the inhibitory concentration 50% (IC50) for the compound and drug positive controls on infected cells and their effects on non-tumoral Vero cells, to define the concentration of evaluation and to calculate the antiviral selectivity index (SI). Then, the concentration of NQ 4 that reduced the number of viral plaques by 50% (EC50) was determined from the dose-response curves.
(§5) The potential antiviral mechanism of NQ 4 was evaluated by the plaque reduction assay as previously described by us. Vero cell monolayers grown in 24-well plates were infected with 100 PFU/well of each virus. For simultaneous treatment, the compound and the virus were added simultaneously to the cell monolayers and incubated for 1 h at 37 °C (5% CO2). Then, cells were washed with phosphate buffered saline (PBS, pH = 7.0) and CMC at 1% and 0.75% was added for HHV-1 and HHV-2, respectively. In post-infection treatment, virus was added to cell monolayer and incubated for 1 h at 37 °C (5% CO2). After incubation, washing was performed with PBS and molecule previously prepared in CMC 1% and 0.75% for HHV-1 and HHV-2 respectively, was added. In both treatments, NQ 4 was prepared at concentrations from 0.4 µg/mL to 3.1 µg/mL and the cell monolayers allowed to incubate for 72 h. Subsequently, cells were fixed and stained with a solution of 3.5% formaldehyde with 0.2% crystal violet, and the viral plaques were counted. Dextran sulfate (DS) was included as positive control in simultaneous assay and acyclovir (A) was the positive control in after infection treatment.

HHV-2 = test: as above; assay type: cell-based, Human Herpesvirus 2; settings: for Antiviral activity in simultaneous treatment, HHV-2: PFU, NQ 4 0.4–3.1 µg/mL, DS 5 µg/mL; for Antiviral activity in post-infection treatment, HHV-2: post-infective stages, acyclovir 1.5 µg/mL
Experimental: as §4, §5

DENV-2 = test: Plaque reduction assay, simultaneous and post-infection treatment, BHK-21 cells; assay type: cell-based, Dengue virus type 2
Experimental: as §4
Against DENV, the effect of NQ 4 either simultaneously or post-infection was also evaluated by the plaque reduction assay as previously described. Concentrations employed for this assay were from 0.4 µg/mL to 1.6 µg/mL. In this test, BHK-21 cell monolayers grown in 24-well plates were infected with 100 PFU/well of DENV-2 and treatments were performed in the same way to describe for Herpesviruses. Moreover, the monolayers were incubated for 6 days, fixed and stained with a solution of 3.5% formaldehyde with 0.2% crystal violet, and the viral plaques were counted. Heparin (H) was included as a positive control in the simultaneous assay, and ribavirin (R) was the positive control in after infection treatment.

HHV-1 [4] = test: HHV-1 viral attachment assay on Vero cells (plaque reduction); assay type: cell-based, Human Herpesvirus 1; settings: Human alphaherpesvirus 1, Vero
Experimental: (§6) The effect of NQ 4 in the initial phases of the HHV-1 viral replication was done as previously described by Cardozo et al., 2011 [53]. In the attachment assay, pre-chilled (1 h at 4 °C) Vero cell monolayers were exposed to viruses (100 PFU/well) in presence or absence of the compound and were incubated for 2 h at 4 °C. After incubation, the substance and unbounded viruses were removed with cold PBS; cells were overlaid with CMC 1% and incubated for 72 h at 37 °C (5% CO2). In the entry assay, pre-chilled cells were infected with viruses (100 PFU/well) and incubated for 2 h at 4 °C. After this time, the unbound viruses were removed with cold PBS; cells were treated with different concentrations of pre-warmed compound, and then incubated for 1 h at 37 °C. Unabsorbed viruses were inactivated using citrate buffer (pH = 3.0) and then cells were washed with PBS, overlaid with CMC 1%, and incubated for 72 h at 37 °C (5% CO2). In both assays, further procedures were the same mentioned previously for the plaque reduction assay and dextran sulfate (DS) was included as positive control.
(§7) In these tests, the evaluated NQ 4 concentration range was from 0.1 to 0.8 µg/mL and the effective concentration fifty (EC50), the concentration that reduces the 50% of plaque forming units, was determined from dose-effect curves by linear regression methods for each compound. […]

HHV-1 [5] = test: HHV-1 viral entry assay on Vero cells (plaque reduction); assay type: cell-based, Human Herpesvirus 1; settings: 0.1–0.8 µg/mL
Experimental: as §6, §7

[6] = Vero ATCC CCL-81, 48 h, MTT, read-out: IC50 ± SD, Vero
[7] = non-tumoral Vero cells, data not shown
[8] = non-tumoral Vero cells, data not shown, read-out: IC50 on Vero cells

Compound: CC(C)=CCCc1ccc2c(c1)C(=O)C=CC2=O [NQ 1]
- IC50 (HeLa): > 104 µM
- IC50 (Jurkat): > 104 µM

Compound: CC1(C)CCCc2cc3c(cc21)C(=O)C(Cl)=C(Cl)C3=O [AQ 12]
- minimal effective concentration ([1]; tested 6.25-50 µg/mL): > 50 µg/mL
- Rf (reduction factor of the viral titer), HHV-2 [2]: 1 × 10^2
- Rf (reduction factor of the viral titer), HHV-2 ([2]; listed as 12): 10^2
- minimal effective concentration [2]: 25 µg/mL
- IC50 (HeLa): 38.5 ± 1.2 µM
- IC50 (Jurkat): 27.5 ± 0.6 µM
- IC50 (Vero; [6]): 136 ± 4.4 µM

Compound: heparin [reference compound]
- IC50 on Vero cells (Vero; [7]): > 400 µg/mL

Compound: CCn1c(C)c(C(=O)OC)c2c1C(=O)c1cc3c(cc1C2=O)C(C)(C)CCC3 [HetQ 22]
- IC50 (HeLa): 73 ± 1.6 µM
- IC50 (Jurkat): 71.7 ± 1.8 µM
- IC50 (Vero; [6]): 183 ± 15.9 µM

Compound: Dextran sulfate [DS, reference compound]
- Rf (reduction factor of the viral titer), HHV-1 [1]: 10^2
- 1 TCID50: non-toxic concentration that showed viral reduction factor, HHV-1 ([1]; 48 h, tested 6.25-50 µg/mL): 0.5 µg/mL
- Antiviral activity in simultaneous treatment, HHV-1 (HHV-1 [3]): active
- Antiviral activity in simultaneous treatment, HHV-2 (HHV-2): active
- IC50 on Vero cells (Vero; [7]): > 400 µg/mL

Compound: Nc1nc2c(ncn2COCCO)c(=O)[nH]1 [A, Acyclovir, reference compound]
- Rf (reduction factor of the viral titer), HHV-1 [1]: 10^4
- minimal effective concentration ([1]; tested 6.25-50 µg/mL): 1.5 µg/mL
- Rf (reduction factor of the viral titer), HHV-2 [2]: 10^4
- minimal effective concentration [2]: 1.5 µg/mL
- Antiviral activity in post-infection treatment, HHV-1 (HHV-1 [3]): active
- Antiviral activity in post-infection treatment, HHV-2 (HHV-2): active
- IC50 (Vero; [8]): > 400 µg/mL

Compound: CC(C)CCCc1ccc2c(c1)C(=O)C(Cl)=C(Cl)C2=O [NQ 4]
- Rf (reduction factor of the viral titer), HHV-1 [1]: 1 × 10^2
- Rf (reduction factor of the viral titer), HHV-1 ([1]; listed as 4): 10^2
- minimal effective concentration ([1]; tested 6.25-50 µg/mL): 6.25 µg/mL
- Rf (reduction factor of the viral titer), HHV-2 [2]: 1 × 10^2
- Rf (reduction factor of the viral titer), HHV-2 ([2]; listed as 4): 10^2
- minimal effective concentration [2]: 12.5 µg/mL
- EC50 (HHV-1 [3]; Human alphaherpesvirus 1, simultaneous treatment, read-out: EC50, anti-herpetic activity on pre-infective stages, HHV-1): < 0.4 µg/mL and < 1.28 µM
- Antiviral activity in post-infection treatment, HHV-1 (HHV-1 [3]): no activity
- Antiviral activity in simultaneous treatment, HHV-1 (HHV-1 [3]): anti-herpetic activity in all concentrations tested
- EC50 (HHV-2; Human alphaherpesvirus 2, simultaneous treatment, read-out: EC50, anti-herpetic activity on pre-infective stages, HHV-2): < 0.4 µg/mL and < 1.28 µM
- Antiviral activity in post-infection treatment, HHV-2 (HHV-2): no activity
- Antiviral activity in simultaneous treatment, HHV-2 (HHV-2): anti-herpetic activity in all concentrations tested
- Antiviral activity in post-infection treatment, DENV-2 (DENV-2; post-infective stages, ribavirin 3.7 µg/mL): no activity
- Concentration showing antiviral activity against DENV-2 (DENV-2; pre-infective stages): 5.1 µM
- Concentration showing significant antiviral activity against DENV-2 (DENV-2; simultaneous treatment (pre-infective stages), tested 0.4–1.6 µg/mL): 1.6 µg/mL
- EC50 (HHV-1 [4]): 0.38 µM
- EC50 (HHV-1 [4]; 2 h at 4 °C, 0.1–0.8 µg/mL): 0.12 µg/mL
- Effect on HHV-1 viral entry (HHV-1 [5]): not significant
- IC50 (HeLa): 46.6 ± 3.3 µM
- IC50 (Jurkat): 36.3 ± 2 µM
- IC50 (Vero; [6]): ≥ 643 µM
- IC50 (Vero; [8]): > 200 µg/mL
